From US11220504B2, “Pyrrolo[3,2-d] pyrimidine derivatives for the treatment of viral infections and other diseases” (JANSSEN SCIENCES IRELAND UNLIMITED COMPANY, priority 2012, dated 2022)

Assays:
[1] = tested on: interferon-stimulated responsive elements (ISRE); assay: Activation of ISRE promoter elements by conditioned media from PBMC (HEK-ISREluc); type: cell-based, human; settings: Homo sapiens; conditioned media from PBMC transferred to HEK-ISREluc cells, 24 hours; lowest effective concentration; read-out: PBMC LEC
Experimental: The potential of compounds to induce IFN-I was also evaluated by measuring the activation of interferon-stimulated responsive elements (ISRE) by conditioned media from PBMC. The ISRE element of sequence […] (SEQ. ID NO:1) is highly responsive to the STAT1-STAT2-IRF 9 transcription factor, activated upon binding of IFN-I to their receptor IFNAR (Clontech, PT3372-5W). […] A HEK293 cell line stably transfected with pISRE-Luc (HEK-ISREluc) was established to profile of the conditioned PBMC cell culture media.
Briefly, PBMCs were prepared from buffy coats of at least two donors using a standard Ficoll centrifugation protocol. Isolated PBMCs were resuspended in RPMI medium supplemented with 10% human AB serum and 2×10^5 cells/well were dispensed into 384-well plates containing compounds (70 μL total volume). After overnight incubation, 10 μL of supernatant was transferred to 384-well plates containing 5×10^3 HEK-ISREluc cells/well in 30 μL (plated the day before). Following 24 hours of incubation, activation of the ISRE elements was measured by assaying luciferase activity using 40 μL/well Steady Lite Plus substrate (Perkin Elmer) and measured with ViewLux ultraHTS microplate imager (Perkin Elmer). The stimulating activity of each compound on the HEK-ISREluc cells was reported as LEC value, defined as the compound concentration applied to the PBMCs resulting in a luciferase activity at least two fold above the standard deviation of the assay. The LEC in turn indicates the degree of ISRE activation on transfer of a defined amount of PBMC culture medium. Recombinant interferon α-2a (Roferon-A) was used as a standard control compound.

human TLR7 = molecular target: T1, human TLR7 (Homo sapiens, UniProt Q9NYK1); assay: TLR7 cellular reporter assay (HEK293, NFκB-luc); type: cell-based; settings: HEK293 cells transfected with CMV-TLR7 and NFκB-luc, 6 hours incubation; lowest effective concentration
T1 construct: expressed in transfected cells; host or cells: HEK293 cells, transient transfection with CMV-TLR7 plasmid and NFκB-luc plasmid
T1 sequence (Q9NYK1 27-1049): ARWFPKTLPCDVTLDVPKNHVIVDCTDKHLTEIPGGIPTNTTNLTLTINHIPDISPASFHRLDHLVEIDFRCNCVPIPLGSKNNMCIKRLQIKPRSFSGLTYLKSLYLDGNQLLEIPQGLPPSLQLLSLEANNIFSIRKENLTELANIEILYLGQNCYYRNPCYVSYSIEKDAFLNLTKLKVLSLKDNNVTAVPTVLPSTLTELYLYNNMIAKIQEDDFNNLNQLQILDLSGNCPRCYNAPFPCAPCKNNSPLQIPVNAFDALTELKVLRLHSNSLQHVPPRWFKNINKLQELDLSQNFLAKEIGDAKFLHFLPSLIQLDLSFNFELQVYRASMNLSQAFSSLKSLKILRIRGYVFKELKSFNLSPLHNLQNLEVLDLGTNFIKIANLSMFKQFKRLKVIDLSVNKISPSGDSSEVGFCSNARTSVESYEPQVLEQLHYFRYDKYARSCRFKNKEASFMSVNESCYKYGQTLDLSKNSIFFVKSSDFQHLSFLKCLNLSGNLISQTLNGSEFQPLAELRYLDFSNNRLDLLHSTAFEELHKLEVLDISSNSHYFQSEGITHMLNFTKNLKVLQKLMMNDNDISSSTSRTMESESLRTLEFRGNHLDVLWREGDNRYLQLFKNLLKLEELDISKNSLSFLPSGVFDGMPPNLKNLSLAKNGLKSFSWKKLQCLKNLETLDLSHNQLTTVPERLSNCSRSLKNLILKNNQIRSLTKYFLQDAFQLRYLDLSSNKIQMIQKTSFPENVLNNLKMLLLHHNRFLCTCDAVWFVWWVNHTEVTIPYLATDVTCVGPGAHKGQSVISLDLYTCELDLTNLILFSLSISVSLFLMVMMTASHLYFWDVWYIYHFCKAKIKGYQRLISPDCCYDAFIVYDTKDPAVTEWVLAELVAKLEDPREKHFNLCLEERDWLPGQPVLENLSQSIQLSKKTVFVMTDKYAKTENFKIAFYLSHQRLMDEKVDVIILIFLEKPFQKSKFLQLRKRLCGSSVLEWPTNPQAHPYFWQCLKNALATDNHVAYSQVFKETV
Experimental: (§1) The ability of compounds to activate human TLR7 and/or TLR8 was assessed in a cellular reporter assay using HEK293 cells transiently transfected with a TLR7 or TLR8 expression vector and NFκB-luc reporter construct.
(§2) Briefly, HEK293 cells were grown in culture medium (DMEM supplemented with 10% FCS and 2 mM Glutamine). […] Thirty microliters of cells were then dispensed into each well in 384-well plates, where 10 μL of compound in 4% DMSO was already present. Following 6 hours incubation at 37° C., 5% CO2, the luciferase activity was determined by adding 15 μL of Steady Lite Plus substrate (Perkin Elmer) to each well and readout performed on a ViewLux ultraHTS microplate imager (Perkin Elmer). Dose response curves were generated from measurements performed in quadruplicates.

human TLR8 = molecular target: T2, human TLR8 (Homo sapiens, UniProt Q9NR97); assay: TLR8 cellular reporter assay (HEK293, NFκB-luc); type: cell-based; settings: HEK293 cells transfected with CMV-TLR8 and NFκB-luc, 6 hours incubation; lowest effective concentration
T2 construct: expressed in transfected cells; host or cells: HEK293 cells, transient transfection with TLR8 plasmid and NFκB-luc plasmid
T2 sequence (Q9NR97 27-1041): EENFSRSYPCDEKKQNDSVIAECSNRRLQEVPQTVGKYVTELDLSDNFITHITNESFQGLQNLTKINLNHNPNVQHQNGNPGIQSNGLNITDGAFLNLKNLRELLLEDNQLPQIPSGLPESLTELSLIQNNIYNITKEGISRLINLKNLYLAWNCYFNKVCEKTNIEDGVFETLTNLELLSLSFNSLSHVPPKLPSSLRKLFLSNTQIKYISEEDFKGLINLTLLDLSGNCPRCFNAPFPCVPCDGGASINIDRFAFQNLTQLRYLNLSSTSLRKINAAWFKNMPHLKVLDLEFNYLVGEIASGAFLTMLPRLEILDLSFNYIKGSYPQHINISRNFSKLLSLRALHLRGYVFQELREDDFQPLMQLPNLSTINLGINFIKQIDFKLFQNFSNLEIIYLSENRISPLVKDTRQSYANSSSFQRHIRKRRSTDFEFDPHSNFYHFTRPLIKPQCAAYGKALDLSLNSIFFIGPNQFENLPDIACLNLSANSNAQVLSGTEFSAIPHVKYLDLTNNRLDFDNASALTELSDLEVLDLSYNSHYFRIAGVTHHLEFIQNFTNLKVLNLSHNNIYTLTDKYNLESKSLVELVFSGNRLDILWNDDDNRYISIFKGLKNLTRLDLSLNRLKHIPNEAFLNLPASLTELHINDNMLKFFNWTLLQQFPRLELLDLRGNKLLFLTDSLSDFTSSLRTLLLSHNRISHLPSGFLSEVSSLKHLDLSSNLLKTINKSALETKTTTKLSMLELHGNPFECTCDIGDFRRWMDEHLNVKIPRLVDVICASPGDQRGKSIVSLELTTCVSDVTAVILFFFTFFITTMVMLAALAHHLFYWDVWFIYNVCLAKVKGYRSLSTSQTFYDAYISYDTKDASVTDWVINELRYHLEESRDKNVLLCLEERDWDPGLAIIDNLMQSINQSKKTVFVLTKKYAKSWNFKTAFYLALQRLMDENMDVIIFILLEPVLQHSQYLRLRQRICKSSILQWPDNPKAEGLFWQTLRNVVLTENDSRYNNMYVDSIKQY
Experimental: as §1, §2

Compound | TLR7 LEC (human TLR7) [µM] | TLR8 LEC (human TLR8) [µM] | minimal effective concentration [1] [µM]
Cn1cc(CNc2nc(N)nc3ccn(Cc4ccccn4)c23)nn1 [Compound 193] | 11.3 | >25 | 0.447
CCC[C@@H](CCO)Nc1nc(N)nc2ccn(Cc3c(OC)cccc3OC)c12 [Compound 102] | <0.01 | 0.14 | < 0.001
COCCn1ccc2nc(N)nc(NC(C)c3cccnc3)c21 (centres unmarked) [Compound 201] | 7.30 | >25 | 0.978
COCCn1ccc2nc(N)nc(NC(C)COC)c21 (centres unmarked) [Compound 212] | 7.60 | >25 | 2.09
CCC[C@@H](CCO)Nc1nc(N)nc2ccn(Cc3cccc(OC)c3)c12 [Compound 109] | 0.005 | 7.17 | 0.003
Cc1cc(CNc2nc(N)nc3ccn(Cc4ccccn4)c23)no1 [Compound 89] | – | >25 | –
COc1ccc(Cn2ccc3nc(N)nc(NCc4cc(C)on4)c32)nc1 [Compound 171] | 0.02 | >25 | –
Cc1cnc(CNc2nc(N)nc3ccn(Cc4ccccn4)c23)o1 [Compound 191] | – | >25 | –
Cc1cc(CNc2nc(N)nc3ccn(Cc4ncccc4F)c23)no1 [Compound 125] | – | >25 | –
Cc1cnc(CNc2nc(N)nc3ccn(Cc4ccccn4)c23)s1 [Compound 207] | – | 23 | –
CC(C)c1cc(CNc2nc(N)nc3ccn(Cc4ccccn4)c23)no1 [Compound 127] | – | >25 | –
Cc1cc(CNc2nc(N)nc3ccn(Cc4cc(Cl)ccn4)c23)no1 [Compound 158] | – | >25 | –
COCCNc1nc(N)nc2ccn(Cc3ccccn3)c12 [Compound 119] | – | >25 | –
Cc1cc(CNc2nc(N)nc3ccn(Cc4ccc(C(F)(F)F)cn4)c23)no1 [Compound 122] | – | >25 | –
Nc1nc(NCc2ncco2)c2c(ccn2Cc2ccccn2)n1 [Compound 142] | – | >25 | –
Nc1nc(NCc2ccon2)c2c(ccn2Cc2ccccn2)n1 [Compound 155] | – | >25 | –
Cc1cc(CNc2nc(N)nc3ccn(Cc4cc(C(F)(F)F)ccn4)c23)no1 [Compound 145] | – | >25 | –
CC(Nc1nc(N)nc2ccn(Cc3ccccn3)c12)c1ccccn1 (centres unmarked) [Compound 190] | – | >25 | –
COCCCNc1nc(N)nc2ccn(Cc3ccccn3)c12 [Compound 138] | – | >25 | –
C[C@@H](Nc1nc(N)nc2ccn(Cc3ccccn3)c12)c1ccccn1 (single isomer, unassigned) [Compound 194] | – | >25 | –
Nc1nc(NCc2cc(C3CC3)on2)c2c(ccn2Cc2ccccn2)n1 [Compound 126] | – | >25 | –
Cc1nnc(CNc2nc(N)nc3ccn(Cc4ccccn4)c23)o1 [Compound 216] | – | >25 | –

Continued, in another order:

TLR7 LEC (human TLR7) [µM] | TLR8 LEC (human TLR8) [µM] | Compound | minimal effective concentration [1] [µM]
0.05 | >25 | Cc1cc(CNc2nc(N)nc3ccn(Cc4cccc(Cl)n4)c23)no1 [Compound 159] | 0.019
5.14 | >25 | CC(C)CCNc1nc(N)nc2ccn(Cc3ccccc3)c12 [Compound 51] | 0.59
– | >25 | COc1cccnc1Cn1ccc2nc(N)nc(NCc3cc(C)on3)c21 [Compound 170] | –
– | >25 | Cc1cc(CNc2nc(N)nc3ccn(Cc4ccc(F)cn4)c23)no1 [Compound 144] | –
4.88 | – | COCCNc1nc(N)nc2ccn(CC(=O)N(C)C)c12 [Compound 166] | –
– | 24.6 | COc1cccc(Cn2ccc3nc(N)nc(NCc4cc(C)on4)c32)n1 [Compound 131] | –
– | >25 | CCOCCNc1nc(N)nc2ccn(Cc3ccccn3)c12 [Compound 140] | –
– | >25 | Cc1nc(CNc2nc(N)nc3ccn(Cc4ccccn4)c23)cs1 [Compound 174] | –
– | >25 | Cc1cc(CNc2nc(N)nc3ccn(Cc4ccccn4)c23)on1 [Compound 184] | –
– | >25 | Cc1cc(CNc2nc(N)nc3ccn(Cc4ncccc4Cl)c23)no1 [Compound 156] | –
– | >22 | COc1ccc(Cn2ccc3nc(N)nc(NCc4cc(C)on4)c32)nc1OC [Compound 124] | –
– | >25 | C[C@H](Nc1nc(N)nc2ccn(Cc3ccccn3)c12)c1ccccn1 (single isomer, unassigned) [Compound 195] | –
– | >25 | Cc1ccc(CNc2nc(N)nc3ccn(Cc4ccccn4)c23)nc1 [Compound 189] | –
– | >25 | CCC(O)CNc1nc(N)nc2ccn(Cc3ccccn3)c12 (centres unmarked) [Compound 141] | –
– | >25 | Cc1coc(CNc2nc(N)nc3ccn(Cc4ccccn4)c23)n1 [Compound 214] | –
– | >25 | Nc1nc(NCc2nccs2)c2c(ccn2Cc2ccccn2)n1 [Compound 136] | –
